Data as given in ChEMBL document CHEMBL5120866, “Design and Synthesis of Novel Celastrol Derivatives as Potential Anticancer Agents against Gastric Cancer Cells” (J Nat Prod, 2022).

Key:
HepG2 = experiment: Antiproliferative activity against human HepG2 cells assessed as cell growth inhibition incubated for 48 hrs by MTT assay; type: functional, cell-based; settings: HepG2, 48 h
HCT-116 = experiment: Antiproliferative activity against human HCT-116 cells assessed as cell growth inhibition incubated for 48 hrs by MTT assay; type: functional, cell-based; settings: HCT-116, 48 h
BGC-823 [1] = experiment: Antiproliferative activity against human BGC-823 cells assessed as cell growth inhibition at 0.5 uM incubated for 48 hrs by MTT assay relative to control; type: functional
BGC-823 [2] = experiment: Antiproliferative activity against human BGC-823 cells assessed as cell growth inhibition incubated for 48 hrs by MTT assay; type: functional, cell-based; settings: BGC-823, 48 h
MCF7 = experiment: Antiproliferative activity against human MCF7 cells assessed as cell growth inhibition incubated for 48 hrs by MTT assay; type: functional, cell-based; settings: MCF7, 48 h
HeLa = experiment: Antiproliferative activity against human HeLa cells assessed as cell growth inhibition incubated for 48 hrs by MTT assay; type: functional, cell-based
BGC-823 [3] = experiment: Induction of apoptosis in human BGC-823 cells assessed as late apoptotic cells at 1 uM incubated for 24 hrs by annexin-V-FITC and PI staining based flow cytometry analysis (reference value: 0.6%); type: functional
BGC-823 [4] = experiment: Induction of apoptosis in human BGC-823 cells assessed as necrotic cells at 1 uM incubated for 24 hrs by annexin-V-FITC and PI staining based flow cytometry analysis (reference value: 0.6%); type: functional
BGC-823 [5] = experiment: Antitumor activity against human BGC-823 cells xenografted in athymic BALB/c nude mouse assessed as tumor growth inhibition rate at 1.5 mg/kg, ip measured every 2 days for 21 days by curson caliper method relative to control; type: functional; settings: BGC-823, 504 h, time 21 day, read-out: TGI
BGC-823 [6] = experiment: Induction of apoptosis in human BGC-823 cells assessed as early apoptotic cells at 1 uM incubated for 24 hrs by annexin-V-FITC and PI staining based flow cytometry analysis (reference value: 2.4%); type: functional
BGC-823 [7] = experiment: Induction of apoptosis in human BGC-823 cells assessed as viable cells at 1 uM incubated for 24 hrs by annexin-V-FITC and PI staining based flow cytometry analysis (reference value: 96.3%); type: functional; settings: read-out: Activity

IC50 (HepG2)	IC50 (HCT-116)	IC50 (BGC-823 [2])	IC50 (MCF7)	IC50 (HeLa)	Structure (SMILES)	inhibition at 0.5 µM (BGC-823 [1])	Activity (BGC-823 [3])	Activity (BGC-823 [4])	inhibition in vivo at 1.5 mg/kg (BGC-823 [5])	Activity (BGC-823 [6])	viability at 1 µM (BGC-823 [7])
840 nM	880 nM	430 nM	1000 nM	910 nM	CC1=C(O)C(=O)C=C2C1=CC=C1[C@@]2(C)CC[C@@]2(C)[C@@H]3C[C@](C)(C(=O)OCCCCn4cc(C)cn4)CC[C@]3(C)CC[C@]12C	> 50%	–	–	–	–	–
390 nM	590 nM	280 nM	520 nM	610 nM	COC(=O)c1cnn(CCCOC(=O)[C@]2(C)CC[C@]3(C)CC[C@]4(C)C5=CC=C6C(=CC(=O)C(O)=C6C)[C@]5(C)CC[C@@]4(C)[C@@H]3C2)c1	> 50%	–	–	–	–	–
700 nM	530 nM	330 nM	720 nM	750 nM	CCOC(=O)c1cnn(CCCCOC(=O)[C@]2(C)CC[C@]3(C)CC[C@]4(C)C5=CC=C6C(=CC(=O)C(O)=C6C)[C@]5(C)CC[C@@]4(C)[C@@H]3C2)c1	> 50%	–	–	–	–	–
820 nM	690 nM	340 nM	840 nM	820 nM	COC(=O)c1cnn(CCCCOC(=O)[C@]2(C)CC[C@]3(C)CC[C@]4(C)C5=CC=C6C(=CC(=O)C(O)=C6C)[C@]5(C)CC[C@@]4(C)[C@@H]3C2)c1	> 50%	–	–	–	–	–

Second part, the molecule before the results:

Structure (SMILES)	IC50 (HepG2)	IC50 (HCT-116)	IC50 (BGC-823 [2])	IC50 (MCF7)	IC50 (HeLa)	inhibition at 0.5 µM (BGC-823 [1])	Activity (BGC-823 [3])	Activity (BGC-823 [4])	inhibition in vivo at 1.5 mg/kg (BGC-823 [5])	Activity (BGC-823 [6])	viability at 1 µM (BGC-823 [7])
CC1=C(O)C(=O)C=C2C1=CC=C1[C@@]2(C)CC[C@@]2(C)[C@@H]3C[C@](C)(C(=O)OCCCCn4cc([N+](=O)[O-])cn4)CC[C@]3(C)CC[C@]12C	480 nM	640 nM	460 nM	740 nM	880 nM	> 50%	–	–	–	–	–
CC1=C(O)C(=O)C=C2C1=CC=C1[C@@]2(C)CC[C@@]2(C)[C@@H]3C[C@](C)(C(=O)OCCCCn4cccn4)CC[C@]3(C)CC[C@]12C	860 nM	890 nM	470 nM	1100 nM	1100 nM	> 50%	–	–	–	–	–
CC1=C(O)C(=O)C=C2C1=CC=C1[C@@]2(C)CC[C@@]2(C)[C@@H]3C[C@](C)(C(=O)O)CC[C@]3(C)CC[C@]12C [CELASTROL]	1500 nM	1900 nM	1100 nM	1700 nM	1700 nM	–	4%	0.2%	76.5%	16.1%	79.7%
